Measurements as given in US10945978B2, “Treatment and diagnosis of melanoma” (The Rockefeller University, priority 2012, dated 2021).
Structures can show the parent of a compound that is named as a salt.

How the values were obtained:
[1] = test system: B-Raf^V600E/+; Pten^−/−; CDKN2A^−/− primary mouse melanoma cells; test: B-RafV600E/+; Pten−/−; CDKN2A−/− melanoma cells in syngeneic C57BL/6 mice; format: in vivo; conditions: GW3965 diet 100 mg/kg
Procedure: Melanoma cells used for in vivo metastasis assays were transduced with a stably expressed retroviral construct encoding a luciferase reporter gene (Ponomarev et al., 2004), allowing us to monitor the in vivo progression of melanoma cells by bioluminescence imaging. The following numbers of melanoma cells, resuspended in 100 μL of PBS, were injected intravenously via the tail-vein: 4×10^4 MeWo cells, 2.5×10^5 HT-144 cells, 2×10^5 SK-Mel-334.2 cells, 5×10^4B16F10 cells, and 1×10^5 YUMM cells. The MeWo, HT-144, and SK-Mel-334.2 cells were injected into 6-8 week-old sex-matched NOD scid mice, while the B16F10 and YUMM cells were injected into 6-8 week-old sex-matched C57BL/6 mice. […] To assess the effect of GW3965 treatment on brain metastasis, 1×10^5 MeWo brain-metastatic derivatives were injected intracardially into athymic nude mice. Immediately following injection, mice were randomly assigned to a control diet or GW3965-supplemented diet (100 mg/kg). To determine whether oral delivery of GW3965 can inhibit the progression of incipient metastasis, NOD Scid mice were intravenously injected with 4×10^4 MeWo cells and the cells were allowed to colonize the lungs for 42 days, after which mice were blindedly assigned to a control diet or a GW3965-supplemented diet (100 mg/kg) treatment.

[2] = test system: B16F10, MeWo and SK-Mel-334.2 cells; test: Overall survival of mice bearing subcutaneous melanoma tumors; format: in vivo, mouse; conditions: chow supplemented with GW3965 100 mg/kg after tumor establishment
HUVEC's = test: Endothelial migration and chemotaxis assays (cancer cell-free); set-up: species or system human; conditions: trans-well assay and gradient-based chemotactic assay
Procedure: Serum-starved HUVEC's were pulsed with Cell Tracker Red CMTPX dye for 45 minutes and seeded into HTS Fluoroblock trans-well inserts at a concentration of 1×10^5 HUVEC's in 0.5 mL starvation media per each insert. The assay was allowed to proceed for 16-18 hours at 37° C., and the inserts were processed and analyzed as described above (See Matrigel Invasion Assay).
HUVEC's were serum-starved in 0.2% FBS EGM-2 media for 16 hours and labeled with Cell Tracker Red CMTPX dye for 45 minutes. Meanwhile, the indicated amounts (1-5 jag) of recombinant human ApoE3 or BSA were mixed with 250 μL of matrigel (356231, BD Biosciences) and allowed to solidify at the bottom of a 24-well plate for 30 min. 250 μL of HUVEC EGM-2 media containing 0.2% FBS was then added to each matrigel-coated well, and […] HTS Fluoroblock inserts were fitted into each well. 1×10^5 HUVEC's, resuspended in 0.5 mL of starvation media, were seeded into each insert and allowed to migrate along the matrigel gradient for 16-18 hours at 37° C. Upon completion of the assay, the inserts were mounted on slides and analyzed as described above (See Matrigel Invasion Assay).

O=C(O)Cc1cccc(OCCCN(Cc2cccc(C(F)(F)F)c2Cl)CC(c2ccccc2)c2ccccc2)c1 [GW3965 2, 3-[3-[N-(2-Chloro-3-trifluoromethylbenzyl)-(2,2-diphenylethyl)amino]propyloxy] phenylacetic acid hydrochloride]
overall survival [1]: extended | tumor growth and lung metastasis [1]: robustly inhibited | overall survival time [2]: substantially prolonged

recombinant human ApoE: recombinant human ApoE3 (4696, BioVision)
endothelial migration (HUVEC's): sufficient to inhibit
